The text below walks through data of PubChem BioAssay AID1259407 (Chemical Carcinogenesis Research Information System (CCRIS), 2018).

In this data set the test system is CCRIS mutagenicity, Ames/micronucleus/aberration tests. The experiment in a line: CCRIS mutagenicity studies.
The mark [1] stands for this setting: Test System: AMES SALMONELLA TYPHIMURIUM, Strain/Indicator: TA98, Metabolic Activation: NONE, Method: STANDARD PLATE.
[2] abbreviates: Test System: AMES SALMONELLA TYPHIMURIUM, Strain/Indicator: TA100, Metabolic Activation: NONE, Method: STANDARD PLATE.

Activity calls are given as the source filed them. How the calls were made is not given here.

As for `Cc1c(-c2ccccc2)oc2c(C(=O)OCCN3CCCCC3)cccc2c1=O`, the mutagenic call runs as follows: under setting [1], “inactive; negative”; (Test System: AMES SALMONELLA TYPHIMURIUM, Strain/Indicator: TA98, Metabolic Activation: S-9, Method: STANDARD PLATE) “inactive; negative”; under setting [2], “inactive; negative”; (Test System: AMES SALMONELLA TYPHIMURIUM, Strain/Indicator: TA100, Metabolic Activation: S-9, Method: STANDARD PLATE) “inactive; negative”; (Test System: AMES SALMONELLA TYPHIMURIUM, Strain/Indicator: TA1535, Metabolic Activation: NONE, Method: STANDARD PLATE) “inactive; negative”; (Test System: AMES SALMONELLA TYPHIMURIUM, Strain/Indicator: TA1535, Metabolic Activation: S-9, Method: STANDARD PLATE) “inactive; negative”. For the same molecule, the mutagenic call runs as follows: (Test System: AMES SALMONELLA TYPHIMURIUM, Strain/Indicator: TA1537, Metabolic Activation: NONE, Method: STANDARD PLATE) “inactive; negative”; (Test System: AMES SALMONELLA TYPHIMURIUM, Strain/Indicator: TA1537, Metabolic Activation: S-9, Method: STANDARD PLATE) “inactive; negative”; (Test System: AMES SALMONELLA TYPHIMURIUM, Strain/Indicator: TA1538, Metabolic Activation: NONE, Method: STANDARD PLATE) “inactive; negative”; (Test System: AMES SALMONELLA TYPHIMURIUM, Strain/Indicator: TA1538, Metabolic Activation: S-9, Method: STANDARD PLATE) “inactive; negative”.
For the molecule `COc1ccc(CNC(=O)C(C)Br)cc1OC` (centres undefined), the mutagenic call under setting [2] was “active; positive”.
`COc1ccc(C(=O)[C@@H]2O[C@@H]2c2ccccc2)cc1`: the mutagenic call under setting [1] is “inactive; negative”; the mutagenic call (Test System: AMES SALMONELLA TYPHIMURIUM, Strain/Indicator: TA98, Metabolic Activation: RAT, LIVER, S-9, AROCLOR 1254, Method: STANDARD PLATE) is “inactive; negative”; the mutagenic call under setting [2] is “inactive; negative”; the mutagenic call (Test System: AMES SALMONELLA TYPHIMURIUM, Strain/Indicator: TA100, Metabolic Activation: RAT, LIVER, S-9, AROCLOR 1254, Method: STANDARD PLATE) is “inactive; negative”.
As for `Cc1ccc(O)cc1`, the mutagenic call (Test System: Ames Salmonella typhimurium, Strain/Indicator: TA98, Metabolic Activation: Hamster, Liver, S-9, Aroclor 1254 (10%), Method: Preincubation) is “inactive; negative”; the mutagenic call (Test System: Ames Salmonella typhimurium, Strain/Indicator: TA98, Metabolic Activation: None, Method: Preincubation) was “inactive; negative”; the mutagenic call (Test System: Ames Salmonella typhimurium, Strain/Indicator: TA98, Metabolic Activation: Rat, Liver, S-9, Aroclor 1254 (10%), Method: Preincubation) was “inactive; negative”; the mutagenic call (Test System: Ames Salmonella typhimurium, Strain/Indicator: TA100, Metabolic Activation: Rat, Liver, S-9, Aroclor 1254 (10%), Method: Preincubation) was “inactive; negative”; the mutagenic call (Test System: Ames Salmonella typhimurium, Strain/Indicator: TA1535, Metabolic Activation: Rat, Liver, S-9, Aroclor 1254 (10%), Method: Preincubation) was “inactive; negative”; the mutagenic call (Test System: Ames Salmonella typhimurium, Strain/Indicator: TA1537, Metabolic Activation: Rat, Liver, S-9, Aroclor 1254 (10%), Method: Preincubation) was “inactive; negative”.
With `CC[C@H]1OC(=O)[C@H](C)[C@@H](O[C@H]2C[C@@](C)(OC)[C@@H](O)[C@H](C)O2)[C@H](C)[C@@H](O[C@@H]2O[C@H](C)C[C@H](N(C)C)[C@H]2O)[C@](C)(O)C[C@@H](C)[C@@H]2N[C@@H](COCCOC)O[C@H]([C@H]2C)[C@]1(C)O`, the mutagenic call is “inactive; negative” (End Point: In vitro chromosomal aberrations, Test System: Chinese hamster lung (CHL) cells, Metabolic Activation: None) and “inactive; negative” (End Point: In vitro chromosomal aberrations, Test System: Chinese hamster lung (CHL) cells, Metabolic Activation: S-9).
`O=S(=O)(O)c1cc(S(=O)(=O)O)c2cc(O)ccc2c1`: the mutagenic call (Test System: AMES SALMONELLA TYPHIMURIUM, Strain/Indicator: TA98, Metabolic Activation: NONE, Method: PREINCUBATION) is “inactive; negative”; the mutagenic call (Test System: AMES SALMONELLA TYPHIMURIUM, Strain/Indicator: TA98, Metabolic Activation: RAT LIVER S-9, PHENOBARBITAL AND BETA-NAPHTHOFLAVONE, Method: PREINCUBATION) is “inactive; negative”; the mutagenic call (Test System: AMES SALMONELLA TYPHIMURIUM, Strain/Indicator: TA98, Metabolic Activation: RAT, LIVER, S-9, PHENOBARBITAL, Method: PREINCUBATION) is “inactive; negative”; the mutagenic call (Test System: AMES SALMONELLA TYPHIMURIUM, Strain/Indicator: TA100, Metabolic Activation: NONE, Method: PREINCUBATION) is “inactive; negative”; the mutagenic call (Test System: AMES SALMONELLA TYPHIMURIUM, Strain/Indicator: TA100, Metabolic Activation: RAT LIVER S-9, PHENOBARBITAL AND BETA-NAPHTHOFLAVONE, Method: PREINCUBATION) is “inactive; negative”; the mutagenic call (Test System: AMES SALMONELLA TYPHIMURIUM, Strain/Indicator: TA100, Metabolic Activation: RAT, LIVER, S-9, PHENOBARBITAL, Method: PREINCUBATION) is “inactive; negative”. Moreover, the mutagenic call by setting is: (Test System: AMES SALMONELLA TYPHIMURIUM, Strain/Indicator: TA1535, Metabolic Activation: NONE, Method: PREINCUBATION) “inactive; negative”; (Test System: AMES SALMONELLA TYPHIMURIUM, Strain/Indicator: TA1535, Metabolic Activation: RAT LIVER S-9, PHENOBARBITAL AND BETA-NAPHTHOFLAVONE, Method: PREINCUBATION) “inactive; negative”; (Test System: AMES SALMONELLA TYPHIMURIUM, Strain/Indicator: TA1537, Metabolic Activation: NONE, Method: PREINCUBATION) “inactive; negative”; (Test System: AMES SALMONELLA TYPHIMURIUM, Strain/Indicator: TA1537, Metabolic Activation: RAT LIVER S-9, PHENOBARBITAL AND BETA-NAPHTHOFLAVONE, Method: PREINCUBATION) “inactive; negative”; (Test System: AMES SALMONELLA TYPHIMURIUM, Strain/Indicator: TA1538, Metabolic Activation: NONE, Method: PREINCUBATION) “inactive; negative”; (Test System: AMES SALMONELLA TYPHIMURIUM, Strain/Indicator: TA1538, Metabolic Activation: RAT LIVER S-9, PHENOBARBITAL AND BETA-NAPHTHOFLAVONE, Method: PREINCUBATION) “inactive; negative”. The mutagenic call runs as follows: (Test System: E.COLI, Strain/Indicator: WP2UVRA, Metabolic Activation: NONE, Method: PREINCUBATION) “inactive; negative”; (Test System: E.COLI, Strain/Indicator: WP2UVRA, Metabolic Activation: RAT LIVER S-9, PHENOBARBITAL AND BETA-NAPHTHOFLAVONE, Method: PREINCUBATION) “inactive; negative”.
On to `Fc1ccnc2ccccc12`, for which the mutagenic call was “active; positive” (Test System: AMES SALMONELLA TYPHIMURIUM, Strain/Indicator: TA100, Metabolic Activation: RAT, LIVER, S-9, AROCLOR 1254, Method: PREINCUBATION) and “inactive; negative” (Test System: UDS RODENT HEPATOCYTES, Strain/Indicator: THY INCORP (NON-S-PHASE), Metabolic Activation: NONE, Method: AUTORADIOGRAPHY).
Take `CC(C)C[C@@H]1NC(=O)[C@H](C)N(C)C(=O)CNC(=O)/C(=C/c2ccccc2)N(C)C1=O`: the mutagenic call under setting [1] is “inactive; negative”; the mutagenic call (Test System: AMES SALMONELLA TYPHIMURIUM, Strain/Indicator: TA98, Metabolic Activation: RAT LIVER S-9, AROCLOR 1254, Method: STANDARD PLATE) is “inactive; negative”; the mutagenic call under setting [2] is “inactive; negative”; the mutagenic call (Test System: AMES SALMONELLA TYPHIMURIUM, Strain/Indicator: TA100, Metabolic Activation: RAT LIVER S-9, AROCLOR 1254, Method: STANDARD PLATE) was “inactive; negative”; the mutagenic call (Test System: Ames Salmonella typhimurium, Strain/Indicator: TA97, Metabolic Activation: None, Method: Standard plate) was “inactive; negative. nitrosation did not increase mutagenicity”; the mutagenic call (Test System: Ames Salmonella typhimurium, Strain/Indicator: TA97, Metabolic Activation: Rat, Liver, S-9, Aroclor 1254 (10%), Method: Standard plate) is “inactive; negative. nitrosation did not increase mutagenicity”. Moreover, the mutagenic call reads like this: (Test System: Ames Salmonella typhimurium, Strain/Indicator: TA102, Metabolic Activation: None, Method: Standard plate) “inactive; negative. nitrosation did not increase mutagenicity”; (Test System: Ames Salmonella typhimurium, Strain/Indicator: TA102, Metabolic Activation: Rat, Liver, S-9, Aroclor 1254 (10%), Method: Standard plate) “inactive; negative. nitrosation did not increase mutagenicity”; (Test System: Ames Salmonella typhimurium, Strain/Indicator: TA104, Metabolic Activation: None, Method: Standard plate) “inactive; negative. nitrosation did not increase mutagenicity”; (Test System: Ames Salmonella typhimurium, Strain/Indicator: TA104, Metabolic Activation: Rat, Liver, S-9, Aroclor 1254 (10%), Method: Standard plate) “inactive; negative. nitrosation did not increase mutagenicity”.
